{
  "source": "patent US20240101584A1",
  "about": "“TARGETED DELIVERY OF 1,2,4,5 TETRAOXANE COMPOUNDS AND THEIR USES” (Westlake University, priority 2021, published 2024)",
  "key": {"[1]": {"test_system": "lipid ROS in MDA-MB-231 cells", "test": "C11-BODIPY lipid ROS detection in MDA-MB-231 cells", "assay_type": "cell-based", "conditions": "48 5 μM, 37b 1 μM, RSL3 0.5 μM; 6 h incubation", "procedure": "FIG. 11 is a bar graph showing the detection of lipid ROS with compound 48 (5 μM), compound 37b (1 μM), or RSL3 (0.5 μM) by BODIPY 581/591 C11 after 6 h incubation in MDA-MB-231 cells. **P≤0.01 versus DMSO group. Data are plotted as the mean±SD, n=3 biologically independent samples. All P values were determined using two-tailed Student's t-test.\nSince lipid peroxidation is the evidence about ferroptosis, C11-BODIPY probe is used to validate the lipid ROS generated by tetraoxanes. It is a ratiometric membrane-targeted probe which changes the emission from 590 nm to 510 nm upon the detection of lipid ROS. Here, MDA-MB-231 cells were treated with 48, 37b and RSL3, respectively. The lipid ROS levels were quantified by flow cytometry. Untreated group gave weak signal in FL1 channel (FIG. 11)."}, "[2]": {"test_system": "HeyA8 cells", "test": "CellTiter-Glo viability, adherent HeyA8 ovarian cancer cells", "assay_type": "cell-based", "conditions": "HEY A8; adherent cancer cells; CellTiter-Glo, 48 hrs, n = 3"}, "[3]": {"test_system": "U2OS", "test": "Viability IC50, U2OS cells", "assay_type": "cell-based", "conditions": "Homo sapiens, Table 12a"}, "[4]": {"test_system": "PLC", "test": "Viability IC50, PLC cells", "assay_type": "cell-based", "conditions": "Table 12a"}, "[5]": {"test_system": "HEYA8 CSCs", "test": "CellTiter-Glo viability, HeyA8 cancer stem cells (spheres)", "assay_type": "cell-based", "conditions": "for IC50: HEY A8, cancer stem cell spheres, CellTiter-Glo, 48 hrs, n = 3, read-out: IC50 HeyA8sp (HEYA8 CSCs); for cell viability of ovarian cancer cells and cancer stem cells (FIG. 3C, words): both ovarian cancer cells and CSCs"}, "[6]": {"test_system": "HEYA8 CSC xenograft tumors", "test": "Mouse xenograft ovarian tumors (HEYA8 CSC)", "assay_type": "in vivo", "conditions": "for tolerability of regimens in tested animals / abnormal behavior or weight loss during treatment period: HEYA8 CSC xenograft mice; for abnormal behavior or weight loss during treatment period: entire treatment period", "procedure": "FIG. 7A is a graph showing the tumor volume of xenograft tumors versus time after s.c. injection of DMSO, PTX, compound 37b, or compound 48. Nude mice were injected s.c. with HEYA8 CSC cells (10^6) and randomly allocated to one of the six treatment groups (n=4): (i) DMSO, (ii) Paclitaxel (PTX), 5 mg/kg, (iii) compound 37b, 5 mg/kg, (iv) compound 37b, 10 mg/kg, (v) compound 48, 5 mg/kg, or (vi) compound 48, 10 mg/kg. When control animals (DMSO) began to appear tumor ulceration (25 days), all animals in the experiment were sacrificed and photographed. FIG. 7B are photographs of the tumor from sacrificed animals of different treatment groups after 25 days. FIG. 7C is a graph showing the tumor weight of xenograft tumors versus time after s.c. injection of DMSO, PTX, compound 37b, or compound 48. Data are shown as mean±SEM. * P≤0.05 versus DMSO group.\nThe cytotoxicity of 1,2,4,5-tetraoxanes 48 and 37b on cancer stem cell (CSC) model of HEY A8 CSCs and mouse xenograft ovarian tumors (FIG. 2) was examined. Nude mice were injected s.c. with HEYA8 CSC cells […] and randomly allocated to one of the six treatment groups (n=4): (i) DMSO, (ii) Paclitaxel (PTX), 5 mg/kg, (iii) compound 37b, 5 mg/kg, (iv) compound 37b, 10 mg/kg, (v) compound 48, 5 mg/kg, and (vi) compound 48, 10 mg/kg. When control animals (DMSO) began to appear tumor ulceration (25 days), all animals in the experiment were sacrificed and photographed. It is known that ovarian CSCs have resistance to Taxol, so Taxol was used as negative control."}, "[7]": {"test_system": "NIH3T3 cells", "test": "MTT viability assay, non-cancerous NIH3T3 cells", "assay_type": "cell-based", "conditions": "Mus musculus, NIH3T3", "procedure,_shortened": "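The same panel also contained HepG2, HCT116, non-cancerous NIH3T3 and MDCK cells. Here, bEnd.3 is a mouse brain line, Hela is human cervix, MDA-MB-231 is mammary breast cancer and T47D is mammary ductal.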"}, "[8]": {"test_system": "MDA-MB-231 cells", "test": "MTT viability assay, MDA-MB-231 cells", "assay_type": "cell-based", "conditions": "for IC50: Homo sapiens; for fold more potent than FINO2 in eradicating MDA-MB-231 cells: comparator FINO2; for fold more cytotoxic than OZ439 on MDA-MB-231: comparator OZ439 (literature)", "procedure,_shortened": "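Mouse brain bEnd.3 cells were tested alongside human lines: cervix Hela, breast cancer MDA-MB-231 and mammary ductal T47D.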"}, "[9]": {"test_system": "MDA-MB-231 cells", "test": "Ferroptosis inhibitor rescue (Fer-1, liproxstatin-1) in MDA-MB-231 cells", "assay_type": "cell-based", "conditions": "24 h; for effect of Fer-1 on MDA-MB-231 cell death: Fer-1 50 μM", "procedure": "FIG. 8A is a bar graph showing the effect of Fer-1 (50 μM) on MDA-MB-231 cells treated with compounds 37b, 37a, and 30b, respectively, at the indicated concentrations for 24 h. […], **P≤0.01, ***P≤0.001 versus non-pretreated cells, N.S., no statistically significant change. Data represent mean±SD, n=3 biologically independent samples. All P values were determined using two-tailed Student's t-test.\nFIG. 8B is a bar graph showing the effect of Fer-1 (50 μM) on MDA-MB-231 cells treated with compounds 6b, 48, 30a, and 37f, respectively, at the indicated concentrations for 24 h. *P≤0.01, **P≤0.002, ***P≤0.001 versus non-pretreated cells. Data represent mean±SD, n=3 biologically independent samples. FIG. 8C is a bar graph showing the effect of Fer-1 and DFO on MDA-MB-231 cells treated with compounds 56 and 53, respectively, at the indicated concentrations for 24 h. *P≤0.01, **P≤0.002, ***P≤0.001 versus non-pretreated cells. All P values were determined using two-tailed Student's t-test.\nFIG. 9 is a bar graph showing the effect of liproxstatin ([…]) on MDA-MB-231 cells treated with compounds 48 and 37b, respectively, at the indicated concentrations for 24 h. **P≤0.01 versus non-pretreated cells. Data represent mean±SD, n=3 biologically independent samples. All P values were determined using two-tailed Student's t-test.\nFer-1 was used to investigate the cell death pathway induced by the compounds described herein. Liproxstatin-1 was used to further confirm whether 48 and 37b triggered off ferroptosis in MDA-MB-231 cells."}, "[10]": {"conditions": "MTT, 48 h incubation, mean, n = 3, read-out: IC50 against NIH3T3 cells"}, "[11]": {"conditions": "Table 12b, read-out: IC50 NIH3T3"}, "[12]": {"conditions": "MDA-MB-231, Table 12b, read-out: IC50 MDA-MB-231"}},
  "note": "Read-outs that look alike come from different tables or passages of the source.",
  "data": [
    {"smiles": "CC(C)(C)C1CCC2(CC1)OOC1(CCC(OC(=O)NCCC[P+](c3ccccc3)(c3ccccc3)c3ccccc3)CC1)OO2.[Br-]", "note": "(stereo not drawn) [Compound 37b, (3-((((12-(tert-butyl)-7,8,15,16-tetraoxadispiro[5.2.59.26]hexadecan-3-yl)oxy)carbonyl)amino)propyl)triphenylphosphonium bromide]", "values": [
      {"measurement": "lipid ROS (BODIPY 581/591 C11, FL1, flow cytometry)", "setting": "[1]", "result": "lipid ROS was generated"},
      {"measurement": "IC50", "setting": "[2]", "result": "1.4 ± 0.07", "unit": "µM"},
      {"measurement": "IC50", "setting": "[3]", "result": "3.4 ± 0.2", "unit": "µM"},
      {"measurement": "IC50", "setting": "[4]", "result": "2.7 ± 0.02", "unit": "µM"},
      {"measurement": "IC50", "setting": "[5]", "result": "1.1 ± 0.4", "unit": "µM"},
      {"measurement": "cell viability of ovarian cancer cells and cancer stem cells (FIG. 3C, words)", "setting": "[5]", "result": "could diminish the cell viability"},
      {"measurement": "tumor growth compared with vehicle control", "setting": "[6]; 5 mg/kg and 10 mg/kg, HEYA8 CSC xenograft, 25 days", "result": "effective in inhibiting tumor growth"},
      {"measurement": "tolerability of regimens in tested animals", "setting": "[6]", "result": "well-tolerated"},
      {"measurement": "abnormal behavior or weight loss during treatment period", "setting": "[6]", "result": "no abnormal behavior or weight loss"},
      {"measurement": "IC50", "setting": "[7]; [10]", "result": 4.6, "unit": "µM"},
      {"measurement": "IC50", "setting": "[7]; [11]", "result": "4.6 ± 1.9", "unit": "µM"},
      {"measurement": "IC50", "setting": "[8]; [12]", "result": "0.4 ± 0.05", "unit": "µM"},
      {"measurement": "selectivity index (IC50 of NIH3T3 divided by IC50 on MDA-MB-231)", "setting": "[8]; Table 12b, value in bracket", "result": "(>11.5)"},
      {"measurement": "fold more potent than FINO2 in eradicating MDA-MB-231 cells", "setting": "[8]", "result": "≥ 25", "unit": "fold"},
      {"measurement": "fold more cytotoxic to MDA-MB-231 cells than OZ277", "setting": "[8]; comparator OZ277", "result": 87, "unit": "fold"},
      {"measurement": "fold more cytotoxic than OZ439 on MDA-MB-231", "setting": "[8]", "result": 64, "unit": "fold"},
      {"measurement": "effect of liproxstatin-1 pretreatment on MDA-MB-231 cell death", "setting": "[9]", "result": "prevented the cell death"},
      {"measurement": "effect of Fer-1 on MDA-MB-231 cell death", "setting": "[9]", "result": "subverted MDA-MB-231 cell death"}
    ]},
    {"smiles": "CC(C)(C)C1CCC2(CC1)OOC1(CCC(OC(=O)NCCC[N+](C)(Cc3ccccc3)Cc3ccccc3)CC1)OO2.[I-]", "note": "(stereo not drawn) [Compound 48, N,N-dibenzyl-3-((((12-(tert-butyl)-7,8,15,16-tetraoxadispiro[5.2.59.26]hexadecan-3-yl)oxy)carbonyl)amino)-N-methylpropan-1-aminium iodide]", "values": [
      {"measurement": "lipid ROS (BODIPY 581/591 C11, FL1, flow cytometry)", "setting": "[1]", "result": "lipid ROS was generated"},
      {"measurement": "IC50", "setting": "[2]", "result": "2.3 ± 0.7", "unit": "µM"},
      {"measurement": "IC50", "setting": "[3]", "result": "4.4 ± 0.6", "unit": "µM"},
      {"measurement": "IC50", "setting": "[4]", "result": "3.9 ± 0.6", "unit": "µM"},
      {"measurement": "fold more cytotoxic to HEYA8 CSCs than non-cancerous cells", "setting": "[5]", "result": "at least 24 fold"},
      {"measurement": "IC50", "setting": "[5]", "result": "1.2 ± 0.5", "unit": "µM"},
      {"measurement": "cell viability of ovarian cancer cells and cancer stem cells (FIG. 3C, words)", "setting": "[5]", "result": "could diminish the cell viability"},
      {"measurement": "tumor size", "setting": "[6]; 10 mg/kg, HEYA8 CSC xenograft, 25 days", "result": "reduced the tumor size"},
      {"measurement": "tolerability of regimens in tested animals", "setting": "[6]", "result": "well-tolerated"},
      {"measurement": "abnormal behavior or weight loss during treatment period", "setting": "[6]", "result": "no abnormal behavior or weight loss"},
      {"measurement": "IC50", "setting": "[7]; [10]", "result": "29 ± 5.7", "unit": "µM"},
      {"measurement": "IC50", "setting": "[7]; [11]", "result": "29 ± 5.7", "unit": "µM"},
      {"measurement": "IC50", "setting": "[7]; Table 13, experimental data, MTT, 48 hrs, n = 3, read-out: IC50 NIH3T3", "result": "29 ± 5.7", "unit": "µM"},
      {"measurement": "IC50", "setting": "[8]; MDA-MB-231, 48 h, MTT, 48 h incubation, mean, n = 3, read-out: IC50 against MDA-MB-231 cells", "result": "< 4", "unit": "µM"},
      {"measurement": "IC50", "setting": "[8]; MDA-MB-231, 48 h, Table 13, experimental data, MTT, 48 hrs, n = 3, read-out: IC50 MDA-MB-231", "result": "2.4 ± 0.7", "unit": "µM"},
      {"measurement": "IC50", "setting": "[8]; [12]", "result": "2.4 ± 0.7", "unit": "µM"},
      {"measurement": "selectivity index (IC50 of NIH3T3 divided by IC50 on MDA-MB-231)", "setting": "[8]; Table 13, value in bracket", "result": "(>12)"},
      {"measurement": "fold more potent than FINO2 in eradicating MDA-MB-231 cells", "setting": "[8]", "result": "at least 4 fold"},
      {"measurement": "fold more cytotoxic than OZ439 on MDA-MB-231", "setting": "[8]", "result": 10, "unit": "fold"},
      {"measurement": "effect of liproxstatin-1 pretreatment on MDA-MB-231 cell death", "setting": "[9]", "result": "prevented the cell death"},
      {"measurement": "effect of Fer-1 on MDA-MB-231 cell death", "setting": "[9]", "result": "subverted MDA-MB-231 cell death"}
    ]}
  ]
}
